{"source": "patent US20150051246A1", "about": "(priority 2013, published 2015)", "key": {"[1]": {"system": "xylazine/ketamine induced α2-adrenergic receptor-mediated anesthesia", "conditions": "in vivo, 0.3 mg/kg", "description": "Since emesis is a typical side-effect of PDE4 inhibitors the emetic potential of roflumilast and rolipram was investigated in parallel using the xylazine/ketamine induced α2-adrenergic receptor-mediated anesthesia test. The results confirmed that the two phosphodiesterase 4 inhibitors have different effects on emesis."}, "male C57BL/6NCrl mice": {"system": "male C57BL/6NCrl mice", "assay": "Object Location Task (OLT), spatial memory, 24 h retention interval", "format": "in vivo", "conditions": "for d2 index, discrimination index for T2: 3 h after T1, 24 h interval", "description": "The objective of this study was to evaluate the cognitive improvement effects of Roflumilast on spatial memory employing Object Location Task (OLT) in male C57BL/6NCrl mice. Roflumilast was compared with data of the already established PDE4 inhibitor Rolipram in the same model.\nTwenty-four 7 month-old male C57BL/6NCrl mice (Charles River, L'Arbresle, France) were used (average body weights: 27.6 g). The animals were kept under a 12/12-hour light/dark cycle (lights on from 07.00 pm to 07.00 am) with free access to food and water. All testing was done between 09.00 am and maximally 06.00 pm.\nBoth rolipram (Sigma-Aldrich St. Louis, USA; MW 275.34) and roflumilast (Biocrea, Radebeul, Germany; MW 403.21) were dissolved in dimethylsulfoxide (DMSO) and kept at 4° C.; this stock solution was used for further dilutions in 0.5% methylcellulose. Each of rolipram and roflumilast is used in form of its free base. All injected solutions consisted of 0.5% methylcellulose with a fixed DMSO percentages (1.2%) (vehicle).\nFor the Object Location Task (OLT), doses of 0.01 mg/kg, 0.03 mg/kg and 0.1 mg/kg of Rolipram or Roflumilast or vehicle were administered subcutaneously (s.c.). Based on previous findings, PDE4 inhibitor single administration was performed 3 hours after the first trial as this has an optimum effect on object memory performance. The injection volume was 5 μl/g.\nThe OLT apparatus consisted of a circular arena, 40 cm in diameter. Half of the 40 cm transparent polyvinyl chloride wall was covered from the outside with white paper. Two objects were placed symmetrically about 10 cm away from the wall on the separation line, between the transparent and covered side of the arena. Four different sets of objects were available: (1) a cone made of brass (maximal diameter 6 cm and total height 3.8 cm), (2) a transparent glass bottle (diameter 2.7 cm, height 8.5 cm) filled with sand and water, (3) a massive metal cube (2.5 cm×5 cm×7.5 cm) with two holes (diameter 1.5 cm), and (4) a massive aluminum cube with a tapering top (4.5 cm×4.5 cm×8.5 cm).\nA testing session comprised two trials of 4 minutes. Before each trial, mice were placed in an empty Makrolon cage (incubation cage) for the same amount of time as the trial (4 min). During the first trial (T1), two identical objects were placed symmetrically about 10 cm away from the wall on the separation line between the transparent and covered side of the arena. After the first exploration period of 4 min, the mouse was put back in its home cage. Mice then received treatment at 3 hours post T1. Subsequently, after a predetermined delay interval (24 h), the mouse was placed in the apparatus for the second trial of 4 min (T2). Two identical objects as in T1 were used; one object was placed in the previously used position, whereas the other was placed in a novel position. The novel position of the object could either be a fixed distance towards the front or a fixed distance towards the back of the arena for both objects. The times spent exploring each object during T1 and T2 were recorded manually using a personal computer. All objects and locations were used in a balanced manner to exclude possible object and/or location preferences. To avoid olfactory cues, the objects were thoroughly cleaned with 70% ethanol after each trial. The testing order of conditions was determined randomly.\nThe measurements reflected the time spent by the mice in exploring each object during T1 and T2. The time spent in exploring the two identical samples in T1 were represented by ‘a1’ and ‘a2’, respectively. The time spent in exploring the sample and the new object in T2 were represented by ‘a’ and ‘b’, respectively. From these exploration times the following variables were calculated: e1, e2, and d2 (Table 1). The d2 index is a relative measure of discrimination corrected for exploratory activity. […]"}, "male Wistar rats": {"system": "male Wistar rats", "assay": "Object recognition task (ORT), scopolamine induced memory deficit", "format": "in vivo", "procedure": "Memory acquisition processes are investigated using the object recognition test (ORT).\nTwenty four 3-4 month old male Wistar rats (Charles River, Sulzfeld, Germany) were used for the study. All animals were housed individually in standard green line Tecniplast IVC cages on stardust bedding. The animals were housed on a reversed 12/12 h light/dark cycle (lights on from 07:00 pm to 07:00 am) and had free access to food and water. The rats were housed and tested in the same room. A radio, playing softly, provided background noise in the room. All testing was performed between 09:00 am and 06:00 pm.\nDrugs were prepared daily, except as indicated otherwise. Roflumilast (Takeda, Konstanz, Germany, MW 403.21) was dissolved in 98% methylcellulose solution (0.5% methylcellulose) and 2% Tween 80. Roflumilast in doses of 0 (vehicle), 0.0001, 0.0003, 0.001, 0.003, 0.01 and 0.03 mg/kg was administered intraperitonally (ip, injection volume 1 ml/kg). […] All compounds were administered 30 min before T1.\nThe testing order of conditions was determined randomly. The experimenter was blind of testing protocol. A within design was used and all treatment conditions were balanced over rats. The ORT was performed as described elsewhere (Ennaceur and Delaceur, 1988, Behav Brain Res, Vol 31, pp 47-59; Akkerman et al; 2012, Behav Brain Res, Vol 232, pp 335-347). The apparatus consisted of a circular arena, 83 cm in diameter. The back half of the 40 cm high wall was made of grey PVC and the front was made of transparent PVC. Fluorescent red tubes and a light bulb provided a constant illumination of about 20 lux on the floor of the apparatus. The light intensity was equal in the different parts of the apparatus.\nTwo objects were placed in symmetrical positions at the mid-line between the gray and transparent halves of the arena, about ten centimeters away from wall. Four different sets of objects were available: 1) a standard 1 L brown transparent glass bottle (diameter 10 cm, height 22 cm) filled with water, 2) a metal cube (10.0×5.0×7.5 cm) with two holes (diameter 1.9 cm), 3) a cone consisting of a gray PVC base (maximal diameter 18 cm) with a collar on top made of brass (total height 16 cm), and 4) an aluminum cube with a tapering top (13.0×8.0×8.0 cm). Objects were presented to the animals in a balanced manner to avoid object or place biases. Rats were unable to displace the objects.\nA test session comprised two trials, each with durations of 3 min. During the learning trial (T1) the apparatus contains two identical objects (object a1 and a2). Rats were always introduced into the apparatus with their nose towards the transparent wall segment (i.e. facing outwards to the front of the arena). Subsequently, rats were put back in its home cage for a 1 h interval. After the retention interval, rats were put back into the arena for the […] (T2). In T2, the two objects from T1 were replaced by one identical copy (a3) and a different novel object (b). The times spent in exploring each object during T1 and T2 were recorded manually on a personal computer.\nExploration was defined in the following manner: directing the nose to the object at a distance of no more than 2 cm and/or touching the object with the nose. Sitting on the object was not considered as exploratory behavior. In order to avoid the presence of olfactory cues, the objects were thoroughly cleaned with a 70% ethanol solution before each trial.\nPrior to compound testing, the animals were handled for 5 min on 2 consecutive days and allowed to explore the ORT arena, also for 5 min. Subsequently, the animals were accustomed to the complete ORT testing procedure without receiving any injection.\nThe readout parameters of the object recognition task are the times that rats spent on exploring each object during T1 and T2. The exploration time (in seconds) of each object during T1 are presented as “a1” and “a2”."}, "phosphodiesterase 4": {"system": "phosphodiesterase 4", "conditions": "in humans after roflumilast; cited from earlier work"}, "[2]": {"format": "in vivo, human", "conditions": "plasma, single dose", "description": "An interim analysis has been performed based on the data of 9 subjects of the Impaired Elderly group and 4 subjects of the Healthy Elderly group. For this purpose, cognitive battery test scores (VLT, SMT, Stroop task and BL-VAS) and concentrations of roflumilast and roflumilast-N-oxide in plasma have been analysed and summarized by dose over each scheduled sampling time using descriptive statistics."}, "[3]": {"format": "in vivo, human", "conditions": "once a day (24 h) repeated dosing", "procedure": "In the above-indicated clinical trial roflumilast was administered once in a single oral dose of 100 mcg, 300 mcg or 1000 mcg. Due to the pharmacokinetics of roflumilast and its metabolite roflumilast-N-oxide and the median plasma half-life of these compounds the steady state plasma concentration levels in a once a day (24 h) repeated dosing regimen of roflumilast/roflumilast-N-oxide is about two-fold compared to the plasma concentration levels following a once a day single dosing."}, "rats [4]": {"system": "rats", "conditions": "cited from earlier work"}, "rats [5]": {"system": "rats", "conditions": "cited from earlier work", "remark": "listed apart in the source"}}, "data": [{"smiles": "COc1ccc(C2CNC(=O)C2)cc1OC1CCCC1", "note": "(stereo not shown) [rolipram]", "values": [{"measurement": "emetic potential", "setting": "[1]", "result": "strong emetic potential"}, {"measurement": "d2 index, discrimination index for T2", "setting": "male C57BL/6NCrl mice; 0.01 mg/kg s.c.", "result": 0.08}, {"measurement": "d2 index, discrimination index for T2", "setting": "male C57BL/6NCrl mice; 0.03 mg/kg s.c.", "result": 0.13}, {"measurement": "d2 index, discrimination index for T2", "setting": "male C57BL/6NCrl mice; 0.1 mg/kg s.c.", "result": 0.07}, {"measurement": "dose effective in improving spatial memory", "setting": "male C57BL/6NCrl mice; s.c.", "result": 0.03, "unit": "mg/kg"}]}, {"smiles": "CN1[C@@H]2C[C@@H](OC(=O)[C@H](CO)c3ccccc3)C[C@H]1[C@@H]1O[C@@H]12", "note": "[scopolamine]", "values": [{"measurement": "d2", "setting": "male Wistar rats; scopolamine 0.1 mg/kg + veh + veh, rof + dpz study", "result": "−0.04"}, {"measurement": "d2", "setting": "male Wistar rats; scopolamine 0.1 mg/kg ip + vehicle, dose response study", "result": 0.01}]}, {"smiles": "COc1cc2c(cc1OC)C(=O)C(CC1CCN(Cc3ccccc3)CC1)C2.Cl", "note": "(racemic) [donepezil, (±)-2,3-dihydro-5,6-dimethoxy2-[[1-(phenylmethyl)-4-piperidinyl]methyl]-1H-inden-1-one]", "values": [{"measurement": "d2", "setting": "male Wistar rats; scopolamine 0.1 mg/kg + donepezil 0.1 mg/kg p.o.", "result": 0.04}]}, {"smiles": "O=C(Nc1c(Cl)c[n+]([O-])cc1Cl)c1ccc(OC(F)F)c(OCC2CC2)c1", "note": "[roflumilast-N-oxide, 3-cyclopropylmethoxy-4-difluoromethoxy-N-(3,5-dichloro-1-oxypyrid-4-yl)benzamide]", "values": [{"measurement": "share of overall phosphodiesterase 4 inhibition", "setting": "phosphodiesterase 4", "result": "more than 90%"}, {"measurement": "exposure", "setting": "[2]", "result": "consistent with those previously reported"}, {"measurement": "steady state plasma concentration levels compared to single dosing", "setting": "[3]", "result": "about two-fold"}]}, {"smiles": "O=C(NC1CC1)c1cn(-c2cccc(-c3ccc([C@@H]4C[C@H]4C(=O)O)c(F)c3)c2)c2ncccc2c1=O", "note": "[MK-0952]", "values": [{"measurement": "Water Maze DMTP test (in words)", "setting": "rats [4]", "result": "improvement"}, {"measurement": "novel object recognition (in words)", "setting": "rats [5]", "result": "improvement of novel object recognition"}]}]}
